Data set [1] in a line: Half life in mouse serum. It counts as ADME, cell-free.
In data set [2] the test system is Pseudomonas aeruginosa. The experiment in a line: Antimicrobial activity against Pseudomonas aeruginosa PAO1 H103 by broth microdilution method. The class given is functional. Background: Broth dilution looks for growth in wells or tubes with falling amounts of substance.
In data set [3] the test system is Staphylococcus aureus. The experiment in a line: Antimicrobial activity against Staphylococcus aureus ATCC 25923 by broth microdilution method. It counts as functional.

≈ marks a conversion by molar mass, not a printed value.

In data set [1], H-RRWRIVVIRVRR-NH2 gave a half-life of 1 h. For the same compound, the results for the MIC in data set [2] and in data set [3] were 2 µg/mL and 1 µg/mL, respectively.

`CC[C@H](C)[C@H](NC(=O)[C@H](CNC(=N)N)NC(=O)[C@H](Cc1c[nH]c2ccccc12)NC(=O)[C@H](CNC(=N)N)NC(=O)[C@H](CNC(=N)N)NC(=O)[C@@H](C)N)C(=O)N[C@H](C(=O)N[C@H](C(=O)N[C@H](C(=O)N[C@@H](CNC(=N)N)C(=O)N[C@H](C(=O)N[C@@H](CNC(=N)N)C(=O)N[C@@H](CNC(=N)N)C(=O)N[C@H](Cc1cnc[nH]1)C(N)=O)C(C)C)[C@@H](C)CC)C(C)C)C(C)C`: the figures for the MIC in data set [2] and in data set [3] were 2 µg/mL (≈ 1.17 µM) and 1 µg/mL (≈ 0.587 µM), respectively.

As to `CC[C@H](C)[C@H](NC(=O)[C@H](CCCNC(=N)N)NC(=O)[C@H](Cc1c[nH]c2ccccc12)NC(=O)[C@H](CCCNC(=N)N)NC(=O)[C@H](CCCNC(=N)N)NC(=O)[C@@H](C)N)C(=O)N[C@H](C(=O)N[C@H](C(=O)N[C@H](C(=O)N[C@@H](CCCNC(=N)N)C(=O)N[C@H](C(=O)N[C@@H](CCCNC(=N)N)C(=O)N[C@@H](CCCNC(=N)N)C(=O)N[C@H](Cc1cnc[nH]1)C(N)=O)C(C)C)[C@@H](C)CC)C(C)C)C(C)C`, the MIC came out at 2 µg/mL (≈ 1.07 µM) in data set [2] and 1 µg/mL (≈ 0.534 µM) in data set [3].

As a reminder, the half-life is the time needed for the level to fall by half in the phase considered. High values mean slow loss, low ones fast loss. A word on the MIC: it is the lowest concentration that inhibits growth of the organism. A lower MIC goes with inhibition by little substance.

The values are drawn from ChEMBL document CHEMBL1649323, “Easy strategy to protect antimicrobial peptides from fast degradation in serum” (Antimicrob Agents Chemother, 2010).
